US9556150B2, “Inhibitors of bruton's tyrosine kinase” (Hoffmann-La Roche Inc., priority 2013, dated 2017)
Where a name gives a salt, the structure may show the parent alone.

Molecular target: Bruton's Tyrosine Kinase (BTK), inactivated state (Homo sapiens (Human), UniProt Q06187)
Experiment: Bruton's Tyrosine Kinase (BTK) Inhibition TR-FRET (Time Resolved FRET) competition assay
Assay type: binding
Conditions: TR-FRET competition with Kinase Tracer 178, BTK-Eu complex, 18-24 h at 14° C.
Procedure: Bruton's Tyrosine Kinase (BTK) Inhibition TR-FRET (Time Resolved FRET) Assay
This BTK competition assay measures compound potency (IC50) for the inactivated state of Bruton's Tyrosine Kinase using FRET (Förster/Fluorescence Resonance Energy Transfer) technology. The BTK-Eu complex was incubated on ice one hour prior to use at a starting concentration of 50 nM BTK-Bioease™: 10 nM Eu-streptavidin (Perkin-Elmer Catalog#AD0062). The assay buffer consisted of 20 mM HEPES (pH 7.15), 0.1 mM DTT, 10 mM MgCl2, 0.5 mg/ml BSA with 3% Kinase Stabilizer (Fremont Biosolutions, Catalog #STB-K02). After 1 h, the reaction mixture from above was diluted 10 fold in assay buffer to make 5 nM BTK: 1 nM Eu-Streptavidin complex (donor fluorophore). 18 μl of a mixture of 0.11 nM BTK-Eu and 0.11 nM Kinase Tracer 178 (Invitrogen, Catalog #PV5593,) with BTK-Eu alone as no negative control, was then dispensed into 384-well flat bottom plates (Greiner, 784076). Compounds to be tested in assay were prepared as 10× concentrations and serial dilution in half-log increments was performed in DMSO so as to generate 10 point curves. To initiate the FRET reaction, compounds prepared as 10× stock in DMSO was added to the plates and the plates were incubated 18-24 h at 14° C.
After the incubation the plates were read on a BMG Pherastar Fluorescent plate reader (or equivalent) and used to measure the emission energy from the europium donor fluorophore (620 nm emission) and the FRET (665 nm emission). The negative control well values were averaged to obtain the mean minimum. The positive “no inhibitor” control wells were averaged to obtain the mean maximum. Percent of maximal FRET was calculated using following equation: % max FRET=100×[(FSR cmpd−FSR mean min)/(FSR mean max−FSR mean min)]
where FSR=FRET Signal ratio. % Max FRET curves were plotted in Activity Base (Excel) and the IC50(%), hill slope, z′ and % CV were determined. The mean IC50 and standard deviation will be derived from duplicate curves (singlet inhibition curves from two independent dilutions) using Microsoft Excel.
Representative compound data for this assay are listed below in Table II.

Chain of Bruton's Tyrosine Kinase (BTK), inactivated state (Q06187 whole entry): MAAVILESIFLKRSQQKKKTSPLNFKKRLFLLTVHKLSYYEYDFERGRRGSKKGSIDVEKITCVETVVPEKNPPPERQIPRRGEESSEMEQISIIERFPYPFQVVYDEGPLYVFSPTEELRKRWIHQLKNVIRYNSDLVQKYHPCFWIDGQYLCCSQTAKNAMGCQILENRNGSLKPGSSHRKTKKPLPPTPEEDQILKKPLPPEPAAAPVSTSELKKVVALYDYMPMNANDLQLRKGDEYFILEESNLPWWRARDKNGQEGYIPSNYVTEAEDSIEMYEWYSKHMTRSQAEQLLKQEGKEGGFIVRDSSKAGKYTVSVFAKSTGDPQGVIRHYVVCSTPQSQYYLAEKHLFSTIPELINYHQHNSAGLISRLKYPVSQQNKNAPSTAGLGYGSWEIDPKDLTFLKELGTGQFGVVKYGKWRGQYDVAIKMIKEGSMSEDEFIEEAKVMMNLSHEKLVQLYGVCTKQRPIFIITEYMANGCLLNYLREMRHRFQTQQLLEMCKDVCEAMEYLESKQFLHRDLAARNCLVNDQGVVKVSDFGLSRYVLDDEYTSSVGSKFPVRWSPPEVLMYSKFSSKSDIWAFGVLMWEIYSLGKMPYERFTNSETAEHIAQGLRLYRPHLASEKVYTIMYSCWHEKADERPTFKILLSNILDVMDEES

IC50 [nM]	SMILES
1.7	N#Cc1cccc(Oc2ccc(-n3ncc(C(=O)c4cc5cc(C(=O)NS(=O)(=O)C6CC6)ccc5[nH]4)c3N)c(Cl)c2)c1 [Example I-45, Cyclopropanesulfonic acid (2-{5-amino-1-[2-chloro-4-(3-cyano-phenoxy)-phenyl]-1H-pyrazole-4-carbonyl}-1H-indole-5-carbonyl)-amide]
> 100000	N#Cc1cc(Oc2cccc(F)c2F)ccc1-n1ncc(C(=O)c2cc3cc(C(=O)N4CCOCC4)ccc3[nH]2)c1N [Example I-21, 2-{5-Amino-4-[5-(morpholine-4-carbonyl)-1H-indole-2-carbonyl]-pyrazol-1-yl}-5-(2,3-difluoro-phenoxy)-benzonitrile]
14	Cc1cc(Oc2cccc(F)c2F)ccc1-n1ncc(C(=O)c2cc3cc(C(=O)O)ccc3[nH]2)c1N [Example I-26, 2-{5-Amino-1-[4-(2,3-difluoro-phenoxy)-2-methyl-phenyl]-1H-pyrazole-4-carbonyl}-1H-indole-5-carboxylic acid]
1.1	CN(C)C(=O)c1ccccc1Oc1ccc(-n2ncc(C(=O)c3cc4cc(C(=O)N5CCNCC5)ccc4[nH]3)c2N)c(Cl)c1 [Example I-51, 2-(4-{5-Amino-4-[5-(piperazine-1-carbonyl)-1H-indole-2-carbonyl]-pyrazol-1-yl}-3-chloro-phenoxy)-N,N-dimethyl-benzamide acetic acid salt]
4.3	Nc1c(C(=O)c2cc3cc(C(=O)N4CCOCC4)ccc3[nH]2)cnn1-c1ccc(Oc2cccc(F)c2F)cc1O [Example I-29, {5-Amino-1-[4-(2,3-difluoro-phenoxy)-2-hydroxy-phenyl]-1H-pyrazol-4-yl}-[5-(morpholine-4-carbonyl)-1H-indol-2-yl]-methanone]
8	CN1CCN(C(=O)c2ccc3[nH]c(C(=O)c4cnn(-c5ccc(Oc6cccc(C#N)c6)cc5Cl)c4N)cc3c2)CC1 [Example I-44, 3-(4-{5-Amino-4-[5-(4-methyl-piperazine-1-carbonyl)-1H-indole-2-carbonyl]-pyrazol-1-yl}-3-chloro-phenoxy)-benzonitrile hydrochloride salt]
3.1	CNCCNC(=O)c1ccc2[nH]c(C(=O)c3cnn(-c4ccc(Oc5ccccc5C(=O)N(C)C)cc4Cl)c3N)cc2c1 [Example I-56, 2-{5-Amino-1-[2-chloro-4-(2-dimethylcarbamoyl-phenoxy)-phenyl]-1H-pyrazole-4-carbonyl}-1H-indole-5-carboxylic acid (2-methylamino-ethyl)-amideacetic acid salt]
32	CN1CCN(C(=O)c2ccc3[nH]c(C(=O)c4cnn(-c5ccc(Oc6cccc(C(=O)N(C)C)c6)cc5Cl)c4N)cc3c2)CC1 [Example I-47, 3-(4-{5-Amino-4-[5-(4-methyl-piperazine-1-carbonyl)-1H-indole-2-carbonyl]-pyrazol-1-yl}-3-chloro-phenoxy)-N,N-dimethyl-benzamide]
1.7	CNC1CCN(C(=O)c2ccc3[nH]c(C(=O)c4cnn(-c5ccc(Oc6ccccc6C(=O)N(C)C)cc5Cl)c4N)cc3c2)C1 (centres unmarked) [Example I-53, acetic acid salt]
3.2	N#Cc1cccc(Oc2ccc(-n3ncc(C(=O)c4cc5cc(C(=O)O)ccc5[nH]4)c3N)c(Cl)c2)c1F [Example I-48, 2-{5-Amino-1-[2-chloro-4-(3-cyano-2-fluoro-phenoxy)-phenyl]-1H-pyrazole-4-carbonyl}-1H-indole-5-carboxylic acid]
2.1	CNC1CCN(C(=O)c2ccc3[nH]c(C(=O)c4cnn(-c5ccc(Oc6ccccc6C(=O)N(C)C)cc5Cl)c4N)cc3c2)CC1 [Example I-58, 2-(4-{5-Amino-4-[5-(4-methylamino-piperidine-1-carbonyl)-1H-indole-2-carbonyl]-pyrazol-1-yl}-3-chloro-phenoxy)-N,N-dimethyl-benzamide]
22	Cc1cc(Oc2cccc(C#N)c2)ccc1-n1ncc(C(=O)c2cc3cc(C(=O)O)ccc3[nH]2)c1N [Example I-32, 2-{5-Amino-1-[4-(3-cyano-phenoxy)-2-methyl-phenyl]-1H-pyrazole-4-carbonyl}-H-indole-5-carboxylic acid]
74	COc1nc(Oc2cccc(F)c2F)ccc1-n1ncc(C(=O)c2cc3cc(C(=O)N4CCOCC4)ccc3[nH]2)c1N [Example I-25, {5-Amino-1-[6-(2,3-difluoro-phenoxy)-2-methoxy-pyridin-3-yl]-1H-pyrazol-4-yl}-[5-(morpholine-4-carbonyl)-1H-indol-2-yl]-methanone]
220	Nc1c(C(=O)c2cc3cc(C(=O)N4CCOCC4)ccc3[nH]2)cnn1-c1ccc(Oc2ccccc2F)nc1 [Example I-9, {5-Amino-1-[6-(2-fluoro-phenoxy)-pyridin-3-yl]-1H-pyrazol-4-yl}-[5-(morpholine-4-carbonyl)-1H-indol-2-yl]-methanone]
1.8	COCCNC(=O)c1ccc2[nH]c(C(=O)c3cnn(-c4ccc(Oc5cccc(F)c5F)cc4C)c3N)cc2c1 [Example I-35, 2-{5-Amino-1-[4-(2,3-difluoro-phenoxy)-2-methyl-phenyl]-1H-pyrazole-4-carbonyl}-1H-indole-5-carboxylic acid (2-methoxy-ethyl)-amide]
150	COC(=O)c1ccc2[nH]c(C(=O)c3cnn(-c4ccc(Oc5cccc(C#N)c5)cc4C)c3N)nc2c1 [Example I-38, 2-{5-Amino-1-[4-(3-cyano-phenoxy)-2-methyl-phenyl]-1H-pyrazole-4-carbonyl}-1H-benzoimidazole-5-carboxylic acid methyl ester]
3.7	Cc1cc(OCc2ccc(Cl)cc2)ccc1-n1ncc(C(=O)c2cc3cc(C(=O)N4CCOCC4)ccc3[nH]2)c1N [Example I-27, {5-Amino-1-[4-(4-chloro-benzyloxy)-2-methyl-phenyl]-1H-pyrazol-4-yl}-[5-(morpholine-4-carbonyl)-1H-indol-2-yl]-methanone]
6.8	Cc1cc(Oc2cccc(C(C)(C)C)c2)ccc1-n1ncc(C(=O)c2cc3cc(C(=O)N4CCOCC4)ccc3[nH]2)c1N [Example I-19, {5-Amino-1-[4-(3-tert-butyl-phenoxy)-2-methyl-phenyl]-1H-pyrazol-4-yl}-[5-(morpholine-4-carbonyl)-1H-indol-2-yl]-methanone]
52	N#CNC(=O)c1ccc2[nH]c(C(=O)c3cnn(-c4ccc(Oc5cccc(C#N)c5)cc4Cl)c3N)cc2c1 [Example I-41, 2-{5-Amino-1-[2-chloro-4-(3-cyano-phenoxy)-phenyl]-1H-pyrazole-4-carbonyl}-N-cyano-1H-indole-5-carboxylic acid amide]
43	Cc1cc(Oc2ccccc2)c(F)cc1-n1ncc(C(=O)c2cc3cc(C(=O)N4CCOCC4)ccc3[nH]2)c1N [Example I-6, {2-[5-Amino-1-(5-fluoro-2-methyl-4-phenoxy-phenyl)-1H-pyrazole-4-carbonyl]-1H-indol-5-yl}-morpholin-4-yl-methanone]
430	N#Cc1cccc(Oc2ccc(-n3ncc(C(=O)c4cc5cc(Br)ccc5[nH]4)c3N)c(Cl)c2)c1 [Example I-33, 3-{4-[5-Amino-4-(5-bromo-1H-indole-2-carbonyl)-pyrazol-1-yl]-3-chloro-phenoxy}-benzonitrile]
25.1	N#Cc1cccc(Oc2ccc(-n3ncc(C(=O)c4cc5cc(C(=O)O)ccc5[nH]4)c3N)c(Cl)c2)c1 [Example I-34, 2-{5-Amino-1-[2-chloro-4-(3-cyano-phenoxy)-phenyl]-1H-pyrazole-4-carbonyl}-1H-indole-5-carboxylic acid]
5.1	CN(C)C(=O)c1ccccc1Oc1ccc(-n2ncc(C(=O)c3cc4cc(C(=O)NCCN(C)C(=O)OC(C)(C)C)ccc4[nH]3)c2N)c(Cl)c1 [Example I-55, {2-[(2-{5-Amino-1-[2-chloro-4-(2-dimethylcarbamoyl-phenoxy)-phenyl]-1H-pyrazole-4-carbonyl}-1H-indole-5-carbonyl)-amino]-ethyl}-methyl-carbamic acid tert-butyl ester]
